# Reference: patent EP1336409B1 (priority 1995, dated 1997)
# Tested on: spinal pia-arachnoid membranes
# Set-up: species or system Macaque nemestrina monkeys
# Conditions: read-out: IC50, displacement of [125I]SNX-111 binding
substance,measurement,value
[Nle^12] SNX-111 [SNX-194],IC50,41 µM
